According to patent US20120251495A1, “PTERIN BASED THERAPIES FOR INFLAMMATORY CONDITIONS” (priority 2008, published 2012):

Tests used:
hepatitis B virus (HBV) = assay: Liver HBV DNA by quantitative PCR in HBV transgenic mice; format: in vivo; settings: female HBV mice; 23.0 mg/(kg day), per os 14 days
HBe antigen = assay: Sera HBeAg ELISA in HBV transgenic mice; format: in vivo; settings: males
Method: Experimental design. DCP was administered per os, once daily for 14 days to randomly assigned HBV transgenic mice at 23, 7.3, and 2.3 mg/(kg d). ADV was used as a positive control at 10 mg/(kg d) using the same treatment schedule and vehicle (0.4% CMC). On day 14, mice were euthanized to collect serum and liver samples to perform liver HBV DNA, liver core and serum HBe assays, serum cytokine/chemokine profiles, and IDO metabolite assays.
Sera HBeAg. Whole blood samples were obtained during necropsy by cardiac puncture, and processed for an HBeAg-specific ELISA (International Immuno Diagnostics, Foster City Calif.) (Money J D, Motter N E, Taro B, Lay M & Fairman J. Efficacy of cationic lipid-DNA complexes (CLDC) on hepatitis B virus in transgenic mice. Antiviral Res 2008; 79:71-79). Using the known PEI (Paul Ehrlich Institute) units for the calibrator, PEI units were formulated for the serial dilutions of the positive serum. A graph was generated, and extrapolation was used to assign a PEI unit value for each sample.

[1] = test system: MDA-MB-231 xenograph tumors; assay: Combined analysis of DCP + control mice: Day 42,43 relative tumor volume and DCP/APCP; format: in vivo, nude mice
Method: Standard ANOVA models for group effects, curve fitting, and stepwise regression analyses were carried out using SPSS Graduate Pack 15.0 for Windows (2006), with p<0.05 used to determine significance.
Table 7 gives the plasma cytokine and relative tumor volume Spearman rank order correlations for the 12 DCP+ control mice (Control [n=3; from 1st experiment]; 23 mg/(kg d) DCP [n=5; from 2nd experiment]; and 69 mg/(kg d) DCP [n=4; from 2nd experiment]).
To further determine significant causal and correlational linkages among DCP dosage, plasma cytokine changes, and relative tumor volume, the following curve fitting analyses were carried out with the 12 DCP+ control mice. First, plotting DCP versus Day 42,43 Relative Tumor Volume yielded a significant quadratic relationship (FIG. 11). Second, curve fitting each cytokine versus Day 42,43 Relative Tumor Volume found no significant linear relationship and only one significant quadratic relationship, i.e., with IL-12 (p=0.004; FIG. 12). Third, plotting DCP versus IL-12 yielded a weakly significant quadratic relationship (p=0.048; FIG. 13).
Substantially more significant analogous plots were generated by first carrying out the Table 8 stepwise regression analysis which derived the DCP antitumor plasma cytokine pattern (DCP/APCP), shown to be a more significant cytokine composite measure than IL-12 taken alone. The Table 8 stepwise regression analysis of the cytokine data from the 12 DCP+ control mice allowed for the calculation of DCP/APCP scores for each mouse. These DCP/APCP scores are plotted versus DCP dosage in […], which illustrates the significant quadratic dose-response relationships of DCP versus the derived plasma DCP/APCP composite measure. From this figure the estimated optimum dosage of DCP for maximum tumor growth inhibition is 42 mg/(kg day), while the estimated optimum dosage for maximum DCP/APCP induction is 44 mg/(kg day).

plasma cytokines = assay: Plasma cytokine levels by ELISA (LINCOplex), 1st experiment; format: in vivo, athymic nude (nu/nu) mice; settings: for IL-10: limit of detection 24.6
Method: Cytokine levels in EDTA plasma from the mice in the 1st experiment were determined by ELISA assay at Alta Analytical Laboratories (San Diego, Calif.) using a LINCOplex Kit (Linco Research). Tryptophan (Trp) and kynurenine (Kyn) concentrations were measured from EDTA plasma samples by high pressure liquid chromatography (HPLC) using 3-nitro-L-tyrosine as the internal standard (Widner et al., 1997). To estimate IDO activity, the kynurenine to tryptophan ratio (Kyn/Trp) was calculated and expressed as μmol kynurenine/mmol tryptophan (Wirleitner, 2003). The values from five mice in the 1st experiment are not included in the summary statistics given in Table 1 for the following reasons. One mouse from each of the four treatment groups was used to test the effects of mega dosing, i.e., with (1:4 mol:mol) calcium pterin at 100 mg/kg/day after Day 60 of treatment, and are excluded. Also excluded was one mouse from the (1:4 mol:mol) calcium pterin (7 mg/kg/day) group which expired suddenly a few days before blood was collected. Cytokine measurements <3.2 pg/ml are reported as n.d. (not detectable) because the standard curves used in the ELISA assays were not calibrated below that level.
Cytokine levels in EDTA plasma from the mice in the 1st experiment were determined by ELISA assay at Alta Analytical Laboratories (San Diego, Calif.) using a LINCOplex Kit (Linco Research).
Cytokine levels in EDTA plasma from the mice in the 2nd experiment were measured at the UCSD Core Laboratory (San Diego, Calif.) using a multiplex assay kit for IL-1β, IL-2, IL-4, IL-5, IL-10, IL-12, IFN-γ, TNF-α and single ELISA kits for IL-6 and TGF-β1 by R&D Systems. EDTA plasma samples from two of the three ungavaged controls were lost due to handling error. For both the 1st and 2nd experiments, those measured cytokine values falling below the limits of detection were set to the higher assay limit for the purposes of the subsequent statistical analyses, and recorded as n.d. (not detectable) in Tables 1 through 3.

[2] = Table 4, 7 mg/kg/d, limit of detection 3.2
[3] = Table 4, 21 mg/kg/d, limit of detection 3.2

Nc1nc([O-])c2nccnc2n1.Nc1nc([O-])c2nccnc2n1.[Ca+2] [DCP, dipterinyl calcium pentahydrate]
Log HBV DNA (PCR) versus controls (hepatitis B virus (HBV)): significant treatment decreases | HBe antigen (ELISA) versus controls (HBe antigen; 2.3 mg/(kg day)): significant treatment increases | HBe antigen (ELISA) versus controls (HBe antigen; 7.3 mg/(kg day)): significant treatment increases | tumor growth inhibition relative to controls (FIG. 9) ([1]; 23 mg/(kg day), Day 42,43 relative tumor volume, combined data): significant tumor growth inhibition | plasma IL-4 correlated to antitumor response ([1]; DCP/APCP): increased | plasma IL-6 correlated to antitumor response ([1]; DCP/APCP): decreased | plasma IL-12 correlated to antitumor response ([1]; DCP/APCP): increased | dose range in which antitumor response and cytokine pattern are optimized ([1]; nude mice with MDA-MB-231 xenograph tumors): 40-46 mg/(kg day) | estimated optimum dosage for maximum DCP/APCP induction ([1]; quadratic fit, FIG. 11): 44 mg/(kg day) | estimated optimum dosage for maximum tumor growth inhibition ([1]; quadratic fit, FIG. 11): 42 mg/(kg day)

(1:4 mol:mol) calcium pterin [CaPterin]
IL10 (plasma cytokines; Table 1, 7 mg/kg/day, plasma): 41.9 ± 22.7 pg/mL | IL-6 (plasma cytokines; Table 1, 7 mg/kg/day, plasma): 114.7 ± 43.2 pg/mL | IL-12 (plasma cytokines; Table 1, 7 mg/kg/day, plasma): 7.7 ± 4.4 pg/mL | TNF-α (plasma cytokines; Table 1, 7 mg/kg/day, plasma): 9.8 ± 1.5 pg/mL | IL-1b (plasma cytokines; Table 1, 7 mg/kg/day, plasma at sacrifice, n.d. = <3.2 pg/ml): 5.2 ± 2.0 pg/mL | IFN-γ (plasma cytokines; Table 1, 7 mg/kg/day, plasma, n.d. = <3.2 pg/ml): 4.7 ± 0.6 pg/mL | IL10 (plasma cytokines; Table 1, 21 mg/kg/day, plasma): 50.8 ± 32.3 pg/mL | IL-6 (plasma cytokines; Table 1, 21 mg/kg/day, plasma): 121.7 ± 78.1 pg/mL | IL-12 (plasma cytokines; Table 1, 21 mg/kg/day, plasma): 243.8 ± 237.8 pg/mL | TNF-α (plasma cytokines; Table 1, 21 mg/kg/day, plasma): 8.5 ± 1.6 pg/mL | IL-1b (plasma cytokines; Table 1, 21 mg/kg/day, plasma at sacrifice, n.d. = <3.2 pg/ml): 3.4 ± 0.2 pg/mL | IFN-γ (plasma cytokines; [2]): 4.7 ± .8 pg/mL | IL-12 (plasma cytokines; [2]): 7.7 ± 4.4 pg/mL | TNF-α (plasma cytokines; [2]): 9.8 ± 1.5 pg/mL | IL-1β (plasma cytokines; Table 4, 7 mg/kg/d, limit of detection 4.1): 5.8 ± 1.7 pg/mL | IL-10 (plasma cytokines; Table 4, 7 mg/kg/d): 49.0 ± 17.0 pg/mL | IL-6 (plasma cytokines; Table 4, 7 mg/kg/d, plasma at sacrifice, limit of detection 3.9): 114.7 ± 43.2 pg/mL | IL-12 (plasma cytokines; [3]): 243.8 ± 237.8 pg/mL | TNF-α (plasma cytokines; [3]): 8.5 ± 1.6 pg/mL | IL-10 (plasma cytokines; Table 4, 21 mg/kg/d): 61.5 ± 27.3 pg/mL | IL-6 (plasma cytokines; Table 4, 21 mg/kg/d, plasma at sacrifice, limit of detection 3.9): 121.7 ± 78.1 pg/mL | plasma IFN-γ response to dosage (ACIP model) (plasma cytokines; stepwise regression): decrease | plasma IL-6 response to dosage (ACIP model) (plasma cytokines; stepwise regression): decrease | plasma IL-10 response to dosage (ACIP model) (plasma cytokines; stepwise regression): increase
